Measurements: PMC13327620, “A Deep‐Red‐Absorbing Osmium(II) Complex as a Photosensitizer for Photodynamic Therapy Inducing Immunogenic Cell Death” (Angewandte Chemie (International Ed. in English), 2026)
Read-outs that look alike come from different tables or passages of the source.

Experiments:
[1] = test system: ATP release; assay: Detection of extracellular ATP in CT26 cells; format: cell-based, mouse; conditions: CT26, irradiated at 740 nm
Protocol: We finally measured ATP release, another important event in ICD, using a bioluminescence detection kit (Figure 3E).
Scientific, Catalog no.15 5411) at a d ensity of 8,00 0 cells p er well and cultu red fo r 24 h at 37 °C with 5 % CO2. T he cells wer e then treated with a solution of the compounds at a concentration corresponding to the IC50 for 4 h. After refreshing the medium, cells were subjected to irradiation and incubated for an additional 12 h. Subsequently, the cells were fix ed with 4% paraformaldehyde and immunostained with Anti- Calreticulin antibody (Abcam, Catalog no. ab2907) diluted 1/1000 at 4 °C overnight. Cells were then washed three times with PBS, treated with Goat Anti- Rabbit IgG H&L (Alexa […]
temperature in the dark, washed in PBS and treat ed with 10 µg/mL Hoechst for 15 min.
After a final wash, cells were analyzed by confocal microscopy as det ailed above. […]
incubated for 24 h. Cells were then treat ed with the determined IC50 of complexes and irradiated or kept in the dark. Supernatants were collected 12 h post-t reatm ent, and the extracellular ATP content was measured with Adenosine 5′ -triphosphate (ATP) Bioluminescent Assay Kit (Sigma-Aldrich) according tomanufacturer ’s ins truction. […]
556419) and PI (BD Biosciences, Catalog no.51- 66211E). CT26- luc cells were analyzed by flow cytometry (Beckm an Coulter Life Sciences, CytoFLEX LX Flow Cytometer). […]

[2] = test system: calreticulin (ecto‐CRT); assay: Immunofluorescence staining of cell surface calreticulin in CT26 cells; format: cell-based, mouse; conditions: CT26, 740 nm light
Protocol: Next, translocation of ER‐resident calreticulin (endo‐CRT) to the cell surface (ecto‐CRT) was measured by confocal microscopy following treatments with Ce6 or Os2 exposed to 740 or 770 nm illumination (Figure 3B,D). In this experiment, cells were fixed but not permeabilized before CRT staining to label only the ecto‐CRT, which is present at the cell surface. […]
concentrations and incub ated for 4 h in the dark. Following the 4 h dark incubation with Os2, wells containing the compound were replaced with the medium containing the selective ROS s caveng ers: 5 mM sodium azide (NaN₃) for singlet oxygen (¹O₂) or 50 mM D-mannitol for hydroxyl radicals (•OH). […] Cell viability was assessed using a 0.2 mg/mL resazurin solution incubated in the dark for 4 h, and fluorescence was measured on a BioTek Cytation 5 Cell Imaging Multimode […]
Singlet oxygen and hydroxyl r adical generation k inetics of Os2 in s olution The generation of singlet oxygen (¹O₂) and hydroxyl radicals (•OH) by Os2 in solution was evalu ated using AB DA (100 μ M) and HPF (5 μ M) as probes, respectively. […] AB DA absorban ce d ecay was monitored to track ¹O₂ gener ation, while HPF fluorescence increas e (λex = 490 nm; λ em = 500-700 nm) was measured to track •OH formation. Control solutions without Os2 wer e measured under the same conditions to account for background signals. […]

[3] = test system: human glioblastoma cells (U-87 MG); assay: Resazurin cell viability assay, (photo)cytotoxicity, normoxia; format: cell-based; conditions: for IC50: Homo sapiens
Protocol: (100 U ml−1), streptomycin (100 U ml−1), and 1% L-glutamine. […]
All cells were incubated at 37 °C in a humidified atmosphere with 5 % CO2.
Normoxia. The in vitro viability of cells exposed to the complexes was determined using a resazurin assay. C ells were seeded in 96-well plates at densities of 4,000 cells/well for CT26, MC A205 and U-87 MG cells, and 8,000 cells/well for MRC-5 and NIH/3T3 cells. A fter 24 h of growth at 37 °C wit h 5% CO2, the medium was replaced with fresh medium containing various concentrations of the compounds . Following a 4- h incubation in the dark, the medium was refres hed , and the plates were exposed to irradiation usinga LUM OS -BIO photoreactor (At las Photonics).N on- ir rad iated plates were similarly refr eshed with medium and kept in the dark for the same duration. After a 40- h r ecov ery period, a f reshly pr epar ed resazurin solution (0.2 mg/mL) was added to each well, and the plates were left in the dark for 4 h before analysis on a B i o Te k Cytation 5 Cell Imaging Multimode Reader (Agil ent Technologies). […]

SMILES: C=Cc1c(C)c2cc3nc(c(CC(=O)O)c4[nH]c(cc5nc(cc1[nH]2)C(C)=C5CC)c(C)c4C(=O)O)[C@@H](CCC(=O)O)[C@@H]3C [Ce6, chlorin e6]
- ATP release [1]: significantly enhanced ATP release
- ecto‐CRT signal [2]: weaker, but clearly visible
- PI ([3]; 740 nm): 28
- PI ([3]; 770 nm): 8
- IC50 ([3]; dark, read-out: IC50 Dark): 116 ± 6.99 µM
- IC50 ([3]; light or radiation study, 1 h, 740 nm, 1.12 mW/cm2, 60 min, 12.60 J/cm2, read-out: IC50 740 nm): 4.15 ± 0.06 µM
- IC50 ([3]; light or radiation study, 2 h, 770 nm, 0.68 mW/cm2, 120 min, 15.30 J/cm2, read-out: IC50 770 nm): 14 ± 3.14 µM
